Source: US20220257491A1, “Prebiotic Oral Care Compositions and Methods” (Colgate-Palmolive Company, priority 2021, published 2022)
Marks after values point to notes of the source that are not given here.

What was measured:
Type in all cases: cell-based
[1] = system: F. nucleatum virulence genes; assay: Multi-species biofilm virulence gene expression, SYBR RT-qPCR: F. nucleatum; conditions: relative to control (=1), 2^-ΔΔCt, geometric mean n=3
Experimental: (§1) Biofilms are grown vertically on Calcium Deficient Hydroxyapatite (CAD-HA) disks (Hitemco Medical, Old Bethpage, USA) using the Amsterdam Active Adhesion model. Biofilms are allowed to establish during 24 h (37° C., 170 rpm) under micro-aerophilic conditions (6% O2, 7% CO2, 7% H2, 80% N2). After this 24 h, disks are rinsed 3 times a day for 3 minutes (RT, 250 rpm), for 3 consecutive days, by transferring the lid containing the disks to a new 24-well plate containing 2 mL/well of the appropriate substrate solution. As a negative control, PBS (pH 5.7) without substrate supplementation is used. After each rinsing step, disks are shortly dip-rinsed in a new 24-well plate containing fresh modified BHI medium (2 mL/well) to remove remaining substrate traces. Subsequently, the lid is transferred to another 24-well plate containing fresh modified BHI medium (2 mL/well), followed by incubation (micro-aerophilic, 37° C., 170 rpm) until the next rinsing step.
(§2) The expression of 33 virulence genes from 4 periodontal pathogens is analysed to evaluate the relative virulence of the substrate-treated biofilms. For all three substrates, virulence gene expression is determined relatively to the control, and these values are also compared between substrates when this is relevant (Tables 5a-5d).

[2] = system: S. oralis; assay: Multi-species biofilm composition: absolute abundance of S. oralis; conditions: for Absolute abundance S. oralis: mean±SD n=3
Experimental: as §1
(§3) NADM, N-acetyl-D-glucosamine (“NADG”) and D-(+)-mannose are selected to determine their effects on multi-species biofilm composition. […] decrease in absolute numbers in at least four of the pathogenic bacterial species tested in the assay, compared to the control, the results of which are described in Table 1 below. Absolute abundances of bacterial species are shown as mean±SD (n=3) logarithmic values of the genome equivalents per millilitre (log(Geq/mL)).

[3] = system: S. sanguinis; assay: Multi-species biofilm composition: absolute abundance of S. sanguinis; conditions: mean±SD n=3
Experimental: as §1, §3

[4] = system: V. parvula; assay: Multi-species biofilm composition: absolute abundance of V. parvula; conditions: mean±SD n=3
Experimental: as §1
NADM, N-acetyl-D-glucosamine (“NADG”) and D-(+)-mannose are selected to determine their effects on multi-species biofilm composition. Repeated rinsing of the biofilms with the substrates at a concentration of 1M results in a significant decrease in absolute numbers in at least four of the pathogenic bacterial species tested in the assay, compared to the control, the results of which are described in Table 1 below. Absolute abundances of bacterial species are shown as mean±SD (n=3) logarithmic values of the genome equivalents per millilitre (log(Geq/mL)).

[5] = system: A. actinomycetemcomitans virulence genes; assay: Multi-species biofilm virulence gene expression, SYBR RT-qPCR: A. actinomycetemcomitans; conditions: for Fold Change in virulence gene expression: aae / Fold Change in virulence gene expression: apaH / Fold Change in virulence gene expression: cdtB / Fold Change in virulence gene expression: emaA / Fold Change in virulence gene expression: flp / Fold Change in virulence gene expression: ltxA / Fold Change in virulence gene expression: omp29 / Fold Change in virulence gene expression: omp100 / Fold Change in virulence gene expression: orf859 / Fold Change in virulence gene expression: pgA / Fold Change in virulence gene expression: vapA / Fold Change in virulence gene expression: vppA: relative to control (=1), 2^-ΔΔCt, geometric mean n=3
Experimental: as §1, §2

[6] = system: S. mitis; assay: Multi-species biofilm composition: absolute abundance of S. mitis; conditions: mean±SD n=3
Experimental: as §1, §3

[7] = system: human oral keratinocytes (HOK-18A); assay: IL-8 levels in supernatants of keratinocyte cultures exposed to substrate-treated biofilms; conditions: for IL-8 levels in supernatants of HOK-18A cultures: mean±SD n=3
Experimental: Cultures of immortalized human oral keratinocytes (HOK-18A) are grown. The relative inflammatory potential of the substrate-treated multi-species biofilms is evaluated by analyzing the expression of five inflammatory mediator genes in human oral keratinocytes (HOKs) exposed to the substrate-treated biofilms. […] The IL-8 levels in the cellular supernatant are determined as well. RNA is converted to cDNA and relative expression of inflammatory mediator genes is determined as described above with respect to the cellular housekeeping gene (3-actin.
Table 7: IL-8 levels detected in the supernatants of human oral keratinocytes (HOK-18A) cultures exposed to substrate-treated multi-species biofilms are shown as mean±SD (n=3) values (pg/mL). All substrates are dissolved in PBS at a concentration of 1 M (upper part) or 1% (w/v) (lower part). Values between 0 and 1 represent relative downregulation, values >1 represent relative upregulation. […] For such values, statistically significant differences between two experimental conditions are marked with ‘#1’ (vs. NADM), ‘#2’ (vs. NADG), ‘#3’ (vs. D-(+)-mannose) (P<0.05).

[8] = system: F. nucleatum; assay: Multi-species biofilm composition: absolute abundance of F. nucleatum; conditions: mean±SD n=3
Experimental: as §1, §3

[9] = system: P. gingivalis virulence genes; assay: Multi-species biofilm virulence gene expression, SYBR RT-qPCR: P. gingivalis; conditions: relative to control, 2^-ΔΔCt, geometric mean n=3
Experimental: as §1, §2

[10] = system: A. viscosus; assay: Multi-species biofilm composition: absolute abundance of A. viscosus; conditions: mean±SD n=3
Experimental: as §1, §3

[11] = system: S. sobrinus; assay: Multi-species biofilm composition: absolute abundance of S. sobrinus; conditions: mean±SD n=3
Experimental: as §1, §3

[12] = system: A. actinomycetemcomitans; assay: Multi-species biofilm composition: absolute abundance of A. actinomycetemcomitans; conditions: mean±SD n=3
Experimental: as §1, §3

CC(=O)N[C@@H]1C(O)O[C@H](CO)[C@@H](O)[C@@H]1O (stereo partly drawn) [NADM, N-acetyl-D-mannosamine]
Fold Change in virulence gene expression: ABC transp. perm. ([1]; substrate 1%): 0.39 fold
Fold Change in virulence gene expression: EF-G ([1]; substrate 1%): 0.11 fold
Fold Change in virulence gene expression: but.-coA transf. ([1]; substrate 1%): 0.38 fold
Fold Change in virulence gene expression: hemin receptor ([1]; substrate 1%): 0.10 fold
Fold Change in virulence gene expression: hemolysin ([1]; substrate 1%): 0.55 fold
Fold Change in virulence gene expression: ompA ([1]; substrate 1%): 0.75 fold
Fold Change in virulence gene expression: transposase ([1]; substrate 1%): 0.75 fold
Fold Change in virulence gene expression: ABC transp. perm. ([1]; substrate 1M): 2.46 fold
Fold Change in virulence gene expression: EF-G ([1]; substrate 1M): 1.37 fold
Fold Change in virulence gene expression: but.-coA transf. ([1]; substrate 1M): 0.76 fold
Fold Change in virulence gene expression: hemin receptor ([1]; substrate 1M): 2.81 fold
Fold Change in virulence gene expression: hemolysin ([1]; substrate 1M): 1.05 fold
Fold Change in virulence gene expression: ompA ([1]; substrate 1M): 1.27 fold
Fold Change in virulence gene expression: transposase ([1]; substrate 1M): 1.03 fold
Absolute abundance S. oralis ([2]; substrate 1%(w/v) in PBS): 7.49 ± 0.30 log(Geq/mL)
Change in S. oralis numbers compared to the control ([2]; substrate 1 M): +2.5 log(Geq/mL)
Difference in S. oralis numbers compared to NADG ([2]; substrate 1 M): +1.5 log(Geq/mL)
Absolute abundance S. oralis ([2]; substrate 1 M in PBS): 9.46 ± 0.24*^, #2 log(Geq/mL)
Absolute abundance S. sang. (S. sanguinis) ([3]; substrate 1%(w/v) in PBS): 8.62 ± 0.39 log(Geq/mL)
Absolute abundance S. sang. (S. sanguinis) ([3]; substrate 1 M in PBS): 9.10 ± 0.29 log(Geq/mL)
Absolute abundance Vp (V. parvula) ([4]; substrate 1%(w/v) in PBS): 10.05 ± 0.17 log(Geq/mL)
Absolute abundance Vp (V. parvula) ([4]; substrate 1 M in PBS): 10.76 ± 0.09 log(Geq/mL)
Fold Change in virulence gene expression: aae ([5]; substrate 1% (w/v)): 0.92 fold
Fold Change in virulence gene expression: apaH ([5]; substrate 1% (w/v)): 0.81 fold
Fold Change in virulence gene expression: cdtB ([5]; substrate 1% (w/v)): 0.59 fold
Fold Change in virulence gene expression: emaA ([5]; substrate 1% (w/v)): 0.40 fold
Fold Change in virulence gene expression: flp ([5]; substrate 1% (w/v)): 0.35 fold
Fold Change in virulence gene expression: ltxA ([5]; substrate 1% (w/v)): 0.29 fold
Fold Change in virulence gene expression: omp29 ([5]; substrate 1% (w/v)): 0.76 fold
Fold Change in virulence gene expression: omp100 ([5]; substrate 1% (w/v)): 0.42 fold
Fold Change in virulence gene expression: orf859 ([5]; substrate 1% (w/v)): 0.57 fold
Fold Change in virulence gene expression: pgA ([5]; substrate 1% (w/v)): 1.07 fold
Fold Change in virulence gene expression: vapA ([5]; substrate 1% (w/v)): 0.82 fold
Fold Change in virulence gene expression: vppA ([5]; substrate 1% (w/v)): 1.01 fold
A. actinomycetemcomitans gene expression decrease: flp, emaA and omp100 ([5]; substrate 1%(w/v)): 2.4- to 2.9 fold
Fold Change in virulence gene expression: aae ([5]; substrate 1M): 0.27 fold
Fold Change in virulence gene expression: apaH ([5]; substrate 1M): 0.25 fold
Fold Change in virulence gene expression: cdtB ([5]; substrate 1M): 0.31 fold
Fold Change in virulence gene expression: emaA ([5]; substrate 1M): 0.36 fold
Fold Change in virulence gene expression: flp ([5]; substrate 1M): 0.85 fold
Fold Change in virulence gene expression: ltxA ([5]; substrate 1M): 0.01 fold
Fold Change in virulence gene expression: omp29 ([5]; substrate 1M): 0.48 fold
Fold Change in virulence gene expression: omp100 ([5]; substrate 1M): 0.04 fold
Fold Change in virulence gene expression: orf859 ([5]; substrate 1M): 0.11 fold
Fold Change in virulence gene expression: pgA ([5]; substrate 1M): 3.53 fold
Fold Change in virulence gene expression: vapA ([5]; substrate 1M): 0.74 fold
Fold Change in virulence gene expression: vppA ([5]; substrate 1M): 0.81 fold
Absolute abundance S. mitis ([6]; substrate 1%(w/v) in PBS): < LOD
Absolute abundance S. mitis ([6]; substrate 1 M in PBS): <LOD
IL-8 levels in supernatants of HOK-18A cultures ([7]; biofilm rinsed with substrate 1%(w/v)): 30.32 ± 6.26 pg/mL
IL-8 levels in supernatants of HOK-18A cultures ([7]; biofilm rinsed with substrate 1M): 0.59 ± 0.61 pg/mL
Reduced IL-8 levels compared to the control ([7]; substrate 1%(w/v)): 2.4 fold
Absolute abundance Fn (F. nucleatum) ([8]; substrate 1%(w/v) in PBS): 9.60 ± 0.22 log(Geq/mL)
Absolute abundance Fn (F. nucleatum) ([8]; substrate 1 M in PBS): 8.14 ± 0.44 log(Geq/mL)
Fold Change in virulence gene expression: fimA ([9]; substrate 1%): 1.07 fold
Fold Change in virulence gene expression: kgp ([9]; substrate 1%): 3.46 fold
Fold Change in virulence gene expression: partC ([9]; substrate 1%): 0.62 fold
Fold Change in virulence gene expression: rgpA ([9]; substrate 1%): 0.88 fold
Fold Change in virulence gene expression: fimA ([9]; substrate 1M): 0.50 fold
Fold Change in virulence gene expression: kgp ([9]; substrate 1M): 0.82 fold
Fold Change in virulence gene expression: partC ([9]; substrate 1M): 0.20 fold
Fold Change in virulence gene expression: rgpA ([9]; substrate 1M): 0.43 fold
Absolute abundance Av (A. viscosus) ([10]; substrate 1%(w/v) in PBS): 7.73 ± 0.09 log(Geq/mL)
Absolute abundance Av (A. viscosus) ([10]; substrate 1 M in PBS): 8.35 ± 0.30 log(Geq/mL)
Absolute abundance S. sobrinus ([11]; substrate 1%(w/v) in PBS): 5.24 ± 0.27 log(Geq/mL)
Absolute abundance S. sobrinus ([11]; substrate 1 M in PBS): 6.05 ± 0.23 log(Geq/mL)
Absolute abundance Aa (A. actinomycetemcomitans) ([12]; substrate 1%(w/v) in PBS): 9.51 ± 0.05 log(Geq/mL)
Absolute abundance Aa (A. actinomycetemcomitans) ([12]; substrate 1 M in PBS): 7.84 ± 0.53 log(Geq/mL)
